The target of experiment [1] is Protein farnesyltransferase (Bos taurus, UniProt P29702+P49355). Nature of the experiment: Scintillation proximity assay (SPA). Format: protein-complex assay. (In general: SPA uses beads or plates that emit light when radiolabelled molecules are held near them.)
The target in experiment [2] is G protein-coupled receptor kinase 3 (Homo sapiens, UniProt P35626). The experiment can be described thus: Inhibition of GRK3 at compound concentration of 10.0 uM using the ScanMax (DiscoverX).
For experiment [3], the target named is Serine/threonine-protein kinase Nek7 (Homo sapiens, UniProt Q8TDX7). Nature of the experiment: Inhibition of NEK7 at compound concentration of 10.0 uM using the ScanMax (DiscoverX).
A short description of experiment [4]: Immunoblot method to monitor prenylation inhibition of Ras. Details: species or system Homo sapiens. (In general: A western blot detects proteins with antibodies after separation by electrophoresis.)
Experiment [5] concerns the target Adenosine receptor A1 (Homo sapiens) (UniProt P30542). The experiment can be described thus: A1 (h) Ligand binding assay. The conditions noted are these: Compound concentration 10.0 uM.
The target of experiment [6] is Adenosine receptor A2a (Homo sapiens) (UniProt P29274). Nature of the experiment: A2a (h) Ligand binding assay. The conditions noted are these: Compound concentration 10.0 uM.
Experiment [7] deals with Sodium-dependent noradrenaline transporter (Homo sapiens) (UniProt P23975). Nature of the experiment: NE uptake (h) Ligand binding assay.
In experiment [8] the target is Type-1 angiotensin II receptor (Homo sapiens) (UniProt P30556). Nature of the experiment: AT1 (h) Ligand binding assay. Particulars: Compound concentration 10.0 uM.
The target of experiment [9] is B2 bradykinin receptor (Homo sapiens) (UniProt P30411). Nature of the experiment: B2 (h) Ligand binding assay. The conditions noted are these: Compound concentration 10.0 uM.
Experiment [10] deals with Calcitonin-gene-related peptide receptor, CALCRL/RAMP1 (Homo sapiens) (UniProt O60894+Q16602). The experiment can be described thus: CGRP (h) Ligand binding assay. It is filed as protein-complex assay. Particulars: Compound concentration 10.0 uM.
The target of experiment [11] is Cholecystokinin receptor type A (Homo sapiens) (UniProt P32238). Nature of the experiment: CCKA (h) Ligand binding assay. Particulars: Compound concentration 10.0 uM.
Experiment [12] has as its target D(3) dopamine receptor (Homo sapiens) (UniProt P35462). Nature of the experiment: D3 (h) Ligand binding assay. The conditions noted are these: Compound concentration 10.0 uM.
In experiment [13] the target is Galanin receptor type 1 (Homo sapiens) (UniProt P47211). Nature of the experiment: GALI (h) Ligand binding assay. Particulars: Compound concentration 10.0 uM.
For experiment [14], the target named is Platelet-derived growth factor receptor (Homo sapiens) (UniProt P09619+P16234). Nature of the experiment: PDGF Ligand binding assay. It is filed as protein-complex assay. The conditions noted are these: Compound concentration 10.0 uM.
Experiment [15] concerns the target Substance-P receptor (Homo sapiens) (UniProt P25103). Nature of the experiment: NK1 (h) Ligand binding assay.
Experiment [16] addresses Pituitary adenylate cyclase-activating polypeptide type I receptor (Homo sapiens) (UniProt P41586). The experiment can be described thus: PACAP[…] (h) Ligand binding assay. Particulars: Compound concentration 10.0 uM.
Experiment [17] concerns the target Thromboxane A2 receptor (Homo sapiens) (UniProt P21731). Nature of the experiment: TXA2/PGH2 (h) Ligand binding assay. Particulars: Compound concentration 10.0 uM.
Experiment [18] concerns the target 5-hydroxytryptamine receptor 6 (Homo sapiens) (UniProt P50406). Nature of the experiment: 5-HT6 (h) Ligand binding assay. Particulars: Compound concentration 10.0 uM.
The target of experiment [19] is Sigma receptor (Homo sapiens) (UniProt Q99720+Q5BJF2). The experiment can be described thus: Sigma (non selective) Ligand binding assay. It is filed as protein assay.
For experiment [20], the target named is D(1B) dopamine receptor (Homo sapiens) (UniProt P21918). The conditions noted are these: Compound concentration 10.0 uM.
The target in experiment [21] is GABA-A receptor; anion channel (Rattus norvegicus) (UniProt O09028+P15431+P18506+P18508+P19969+P20236+P23574+P23576+P28471+P28473+P30191+P62813+P63079+P63138+Q91ZM7+Q9ES14). The conditions noted are these: Compound concentration 10.0 uM.
Experiment [22] has as its target Beta-1 adrenergic receptor (Homo sapiens) (UniProt P08588). Particulars: Compound concentration 10.0 uM.
Experiment [23] has as its target Muscarinic acetylcholine receptor M2 (Homo sapiens) (UniProt P08172). The conditions noted are these: Compound concentration 10.0 uM.
Experiment [24] has as its target Melatonin receptor type 1A (Homo sapiens) (UniProt P48039). Nature of the experiment: ML1 Ligand binding assay. Particulars: Compound concentration 10.0 uM.
In experiment [25] the test system is Glutamate receptor ionotropic NMDA, PCP site (Homo sapiens). Nature of the experiment: PCP Ligand binding assay.

Molecules are shown by their SMILES. Calls of active or inactive are those of the source. The rule behind the calls is not given here.

Sequence of Sigma receptor (Homo sapiens) (Q5BJF2 whole entry, looked up): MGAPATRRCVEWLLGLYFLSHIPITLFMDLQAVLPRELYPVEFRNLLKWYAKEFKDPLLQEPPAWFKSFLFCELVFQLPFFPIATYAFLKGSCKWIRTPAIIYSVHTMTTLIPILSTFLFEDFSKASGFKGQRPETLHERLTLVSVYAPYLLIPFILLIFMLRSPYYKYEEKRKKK
Sequence of Sigma receptor (Homo sapiens) (Q99720 whole entry, looked up): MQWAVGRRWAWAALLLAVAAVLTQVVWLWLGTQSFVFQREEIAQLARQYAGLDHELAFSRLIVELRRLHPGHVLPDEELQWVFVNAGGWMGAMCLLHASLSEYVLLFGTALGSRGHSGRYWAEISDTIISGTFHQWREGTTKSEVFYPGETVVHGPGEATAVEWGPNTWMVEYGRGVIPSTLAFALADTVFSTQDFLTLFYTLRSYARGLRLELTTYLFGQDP
Sequence of Sodium-dependent noradrenaline transporter (Homo sapiens) (P23975 whole entry): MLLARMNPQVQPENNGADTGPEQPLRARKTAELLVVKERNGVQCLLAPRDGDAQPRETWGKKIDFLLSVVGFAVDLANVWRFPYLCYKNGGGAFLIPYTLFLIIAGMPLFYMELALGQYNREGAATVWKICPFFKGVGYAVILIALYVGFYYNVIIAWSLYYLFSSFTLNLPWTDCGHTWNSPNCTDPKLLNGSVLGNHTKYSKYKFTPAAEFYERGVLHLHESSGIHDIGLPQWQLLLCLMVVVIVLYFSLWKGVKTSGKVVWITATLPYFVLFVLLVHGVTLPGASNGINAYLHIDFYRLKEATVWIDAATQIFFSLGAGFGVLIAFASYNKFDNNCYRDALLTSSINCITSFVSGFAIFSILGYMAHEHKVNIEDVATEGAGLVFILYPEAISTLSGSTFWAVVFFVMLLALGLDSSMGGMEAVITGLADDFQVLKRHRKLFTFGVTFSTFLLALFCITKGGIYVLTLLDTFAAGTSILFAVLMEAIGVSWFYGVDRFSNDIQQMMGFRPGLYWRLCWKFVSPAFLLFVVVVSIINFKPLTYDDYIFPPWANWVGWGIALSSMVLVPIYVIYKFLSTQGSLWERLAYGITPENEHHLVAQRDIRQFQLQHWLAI
Sequence of Substance-P receptor (Homo sapiens) (P25103 whole entry): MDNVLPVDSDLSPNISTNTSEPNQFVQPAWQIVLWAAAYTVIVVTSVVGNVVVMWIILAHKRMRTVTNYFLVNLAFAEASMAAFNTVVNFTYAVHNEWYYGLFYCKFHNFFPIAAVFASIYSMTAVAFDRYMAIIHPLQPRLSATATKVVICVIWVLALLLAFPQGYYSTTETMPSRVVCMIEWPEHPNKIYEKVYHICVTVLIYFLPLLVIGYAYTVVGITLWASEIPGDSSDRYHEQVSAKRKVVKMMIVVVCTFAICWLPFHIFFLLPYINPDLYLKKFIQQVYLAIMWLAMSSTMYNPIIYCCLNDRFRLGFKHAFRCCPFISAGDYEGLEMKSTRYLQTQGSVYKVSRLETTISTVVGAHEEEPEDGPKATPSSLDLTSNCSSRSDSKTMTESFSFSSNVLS
Sequence of G protein-coupled receptor kinase 3 (P35626 whole entry): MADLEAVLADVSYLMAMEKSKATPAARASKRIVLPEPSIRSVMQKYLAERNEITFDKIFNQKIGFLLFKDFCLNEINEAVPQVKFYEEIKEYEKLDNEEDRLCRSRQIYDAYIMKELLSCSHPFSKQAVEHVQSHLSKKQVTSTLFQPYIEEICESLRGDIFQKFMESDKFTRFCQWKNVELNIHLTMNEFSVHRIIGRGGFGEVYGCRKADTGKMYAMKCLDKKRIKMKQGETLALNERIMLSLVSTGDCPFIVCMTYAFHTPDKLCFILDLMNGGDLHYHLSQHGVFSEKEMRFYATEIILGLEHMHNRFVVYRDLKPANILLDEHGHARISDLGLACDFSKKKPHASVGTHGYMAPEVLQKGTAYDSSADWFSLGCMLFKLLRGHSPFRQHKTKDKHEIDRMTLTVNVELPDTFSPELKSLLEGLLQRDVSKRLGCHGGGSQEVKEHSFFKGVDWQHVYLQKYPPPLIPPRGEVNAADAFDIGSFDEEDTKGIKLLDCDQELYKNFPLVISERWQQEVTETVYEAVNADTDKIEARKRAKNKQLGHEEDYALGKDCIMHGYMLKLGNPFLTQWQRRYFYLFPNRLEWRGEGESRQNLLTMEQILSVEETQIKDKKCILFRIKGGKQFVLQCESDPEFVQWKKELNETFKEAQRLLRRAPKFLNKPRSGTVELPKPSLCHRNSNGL
Sequence of D(3) dopamine receptor (Homo sapiens) (P35462 whole entry): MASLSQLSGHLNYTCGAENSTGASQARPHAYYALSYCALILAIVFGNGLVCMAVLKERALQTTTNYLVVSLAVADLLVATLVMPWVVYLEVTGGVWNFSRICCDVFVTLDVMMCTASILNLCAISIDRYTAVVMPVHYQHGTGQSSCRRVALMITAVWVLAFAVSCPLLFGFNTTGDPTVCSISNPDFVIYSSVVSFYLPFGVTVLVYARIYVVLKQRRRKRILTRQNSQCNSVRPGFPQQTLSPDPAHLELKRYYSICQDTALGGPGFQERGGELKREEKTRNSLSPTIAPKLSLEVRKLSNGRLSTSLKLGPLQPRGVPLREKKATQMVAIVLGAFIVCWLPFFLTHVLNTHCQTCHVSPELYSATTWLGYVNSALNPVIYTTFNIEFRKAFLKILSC
Sequence of Cholecystokinin receptor type A (Homo sapiens) (P32238 whole entry): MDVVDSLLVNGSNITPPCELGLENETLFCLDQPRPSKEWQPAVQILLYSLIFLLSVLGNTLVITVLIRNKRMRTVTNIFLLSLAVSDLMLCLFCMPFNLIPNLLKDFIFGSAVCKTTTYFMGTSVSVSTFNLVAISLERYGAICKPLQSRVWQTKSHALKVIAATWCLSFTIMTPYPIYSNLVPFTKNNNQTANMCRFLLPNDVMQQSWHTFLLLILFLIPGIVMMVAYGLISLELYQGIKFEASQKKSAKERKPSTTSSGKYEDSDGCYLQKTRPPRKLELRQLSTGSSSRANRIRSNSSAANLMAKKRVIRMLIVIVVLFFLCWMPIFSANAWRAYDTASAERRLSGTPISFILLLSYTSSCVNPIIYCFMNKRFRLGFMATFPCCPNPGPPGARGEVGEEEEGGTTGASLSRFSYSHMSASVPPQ
Sequence of Melatonin receptor type 1A (Homo sapiens) (P48039 whole entry, looked up): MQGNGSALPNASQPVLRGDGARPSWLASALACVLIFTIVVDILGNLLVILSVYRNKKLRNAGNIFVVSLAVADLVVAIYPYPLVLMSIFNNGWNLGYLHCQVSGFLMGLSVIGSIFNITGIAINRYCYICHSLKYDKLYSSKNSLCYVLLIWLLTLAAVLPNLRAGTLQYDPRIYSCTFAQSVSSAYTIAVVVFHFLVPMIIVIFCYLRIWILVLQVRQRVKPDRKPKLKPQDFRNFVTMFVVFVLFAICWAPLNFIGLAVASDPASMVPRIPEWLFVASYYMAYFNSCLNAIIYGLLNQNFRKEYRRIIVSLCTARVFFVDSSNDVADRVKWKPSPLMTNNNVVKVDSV
Sequence of D(1B) dopamine receptor (Homo sapiens) (P21918 whole entry): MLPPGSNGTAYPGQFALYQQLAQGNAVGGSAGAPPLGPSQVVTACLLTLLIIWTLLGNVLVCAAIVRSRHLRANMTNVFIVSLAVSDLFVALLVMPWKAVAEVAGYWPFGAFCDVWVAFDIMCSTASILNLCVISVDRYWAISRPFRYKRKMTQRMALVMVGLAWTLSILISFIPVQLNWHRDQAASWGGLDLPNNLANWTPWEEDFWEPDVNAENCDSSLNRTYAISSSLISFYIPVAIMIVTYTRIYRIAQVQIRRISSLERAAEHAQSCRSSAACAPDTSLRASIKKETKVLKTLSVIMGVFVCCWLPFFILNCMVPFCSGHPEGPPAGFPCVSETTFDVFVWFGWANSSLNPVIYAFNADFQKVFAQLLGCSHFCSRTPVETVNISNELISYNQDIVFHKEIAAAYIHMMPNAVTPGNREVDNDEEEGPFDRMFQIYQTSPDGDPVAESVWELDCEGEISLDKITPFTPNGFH
Sequence of Galanin receptor type 1 (Homo sapiens) (P47211 whole entry): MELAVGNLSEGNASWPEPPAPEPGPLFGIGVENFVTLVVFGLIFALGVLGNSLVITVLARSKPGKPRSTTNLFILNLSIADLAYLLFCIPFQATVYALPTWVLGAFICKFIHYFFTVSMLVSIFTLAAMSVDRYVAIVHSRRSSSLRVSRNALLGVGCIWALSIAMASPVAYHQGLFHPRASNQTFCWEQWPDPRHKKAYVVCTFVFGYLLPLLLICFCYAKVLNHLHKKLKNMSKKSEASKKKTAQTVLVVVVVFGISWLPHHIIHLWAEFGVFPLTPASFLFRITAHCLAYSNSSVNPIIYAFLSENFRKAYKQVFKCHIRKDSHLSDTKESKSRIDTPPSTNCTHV
Sequence of Pituitary adenylate cyclase-activating polypeptide type I receptor (Homo sapiens) (P41586 21-468 limits assumed): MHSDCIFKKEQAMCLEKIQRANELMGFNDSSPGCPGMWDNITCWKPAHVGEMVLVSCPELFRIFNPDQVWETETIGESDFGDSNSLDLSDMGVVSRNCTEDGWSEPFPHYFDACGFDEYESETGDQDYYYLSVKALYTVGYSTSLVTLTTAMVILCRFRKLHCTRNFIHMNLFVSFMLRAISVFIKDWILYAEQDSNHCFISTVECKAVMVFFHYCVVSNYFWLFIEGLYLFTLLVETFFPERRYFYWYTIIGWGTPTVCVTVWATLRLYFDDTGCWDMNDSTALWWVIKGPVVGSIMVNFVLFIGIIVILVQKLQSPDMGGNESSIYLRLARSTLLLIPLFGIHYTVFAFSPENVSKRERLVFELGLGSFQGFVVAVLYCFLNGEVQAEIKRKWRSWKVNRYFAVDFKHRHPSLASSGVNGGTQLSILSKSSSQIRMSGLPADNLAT
Sequence of Adenosine receptor A1 (Homo sapiens) (P30542 whole entry): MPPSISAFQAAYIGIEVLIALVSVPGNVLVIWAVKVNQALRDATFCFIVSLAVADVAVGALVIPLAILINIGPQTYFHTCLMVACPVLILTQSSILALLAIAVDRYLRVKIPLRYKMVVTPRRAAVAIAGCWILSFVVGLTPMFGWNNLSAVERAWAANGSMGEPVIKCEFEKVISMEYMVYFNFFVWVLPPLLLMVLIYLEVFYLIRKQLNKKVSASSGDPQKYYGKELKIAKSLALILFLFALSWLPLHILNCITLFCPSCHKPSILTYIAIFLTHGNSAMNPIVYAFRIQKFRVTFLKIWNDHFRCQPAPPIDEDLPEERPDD

Usually IC50 stands for the concentration that gives 50% inhibition. Higher therefore signals weaker potency. As for `Cn1cncc1[C@@](O)(COc1ccc(C#N)cc1-c1ccc(OC(F)(F)F)cc1)c1ccc(C#N)cc1` [A-108], the IC50 in experiment [1] was > 0.1 µM (not active).
By Kd is commonly meant the equilibrium constant for the complex coming apart. Broadly, the EC50 is the midpoint of the concentration-response curve. What is called inhibition is the relative decrease from the control value, in per cent. On to `Cn1cncc1[C@](O)(COc1ccc(C#N)cc1-c1ccc(OC(F)(F)F)cc1)c1ccc(C#N)cc1` [ABT-100], for which the Kd in [2] and in [3] was > 10 µM (not active) throughout. Besides, the EC50 in experiment [4] was 0.00073 µM (active). Further, the inhibition in experiment [5] was less than 10%; in experiment [6] it was less than 10%; in experiment [7] (Compound concentration 3.0 uM), 45%; in experiment [7] (Compound concentration 10.0 uM), 74%; in experiment [8], less than 10%; in experiment [9], less than 10%. For the same molecule, the inhibition in experiment [10] was less than 10%; in experiment [11], less than 10%; in [12], 36%; in [13], less than 10%; in experiment [14], less than 10%; in [15] (Compound concentration 3.0 uM) it was 31%. Further, the inhibition in [15] (Compound concentration 10.0 uM) is 68%; in experiment [16], less than 10%; in experiment [17], 24%; in experiment [18], less than 10%; in [19] (Compound concentration 3.0 uM) it was 28%; in experiment [19] (Compound concentration 10.0 uM) it was 67%. Further, the inhibition in experiment [20] was 4.79%; in experiment [21] it was 6.85%; in experiment [22], 4.25%; in experiment [23], -1.19%; in experiment [24], 50%; in experiment [25] (Compound concentration 0.3 uM), 14%. For the same molecule, the inhibition in [25] (Compound concentration 1.0 uM) was 75%; in [25] (Compound concentration 3.0 uM), 97%; in [25] (Compound concentration 10.0 uM), 100%.

The record behind these values is ChEMBL document CHEMBL4507257, “Data for DCP probe ABT-100” (2021).
